Test results from ChEMBL document CHEMBL1146403, “Three new cryptophycins from Nostoc sp. GSV 224” (J Nat Prod, 1997).

Key:
Format in all cases: functional, cell-based
[1] = test system: LoVo; assay: Cytotoxicity against human LoVo cells
[2] = test system: SK-OV-3; assay: Cytotoxicity against human SKOV3 cells
[3] = test system: KB; assay: Cytotoxicity against human KB cells

| Compound | IC50 [1] [nM] | IC50 [2] [nM] | IC50 [3] [nM] |
| --- | --- | --- | --- |
| COc1ccc(C[C@H]2NC(=O)/C=C/C[C@@H]([C@H](C)/C=C/c3ccccc3)OC(=O)[C@H](CC(C)C)OC(=O)[C@H](C)CNC2=O)cc1Cl [CRYPTOPHYCIN 3] | 1.9 | 1.9 | 1.9 |
| COc1ccc(C[C@@H]2NC(=O)/C=C/C[C@@H]([C@H](C)/C=C/c3ccccc3)OC(=O)[C@H](CC(C)C)OC(=O)[C@H](C)CNC2=O)cc1Cl [CRYPTOPHYCIN 46] | 750 | 750 | 750 |
| COc1c(Cl)cc(C[C@H]2NC(=O)/C=C/C[C@@H]([C@H](C)/C=C/c3ccccc3)OC(=O)[C@H](CC(C)C)OC(=O)[C@H](C)CNC2=O)cc1Cl [CRYPTOPHYCIN 175] | 100 | 100 | 100 |
| CC(C)C[C@@H]1OC(=O)CCNC(=O)[C@@H](Cc2ccc(O)c(Cl)c2)NC(=O)/C=C/C[C@@H]([C@H](C)[C@H]2O[C@@H]2c2ccccc2)OC1=O [CRYPTOPHYCIN 176] | 1.3 | 1.3 | 1.3 |
| COc1ccc(C[C@H]2NC(=O)/C=C/C[C@@H]([C@H](C)[C@H]3O[C@@H]3c3ccccc3)OC(=O)[C@H](CC(C)C)OC(=O)[C@H](C)CNC2=O)cc1Cl [CRYPTOPHYCIN A] | 0.0092 | 0.0092 | 0.0092 |
